Reference: patent US20230416307A1, “[…] PEPTIDES FOR ENHANCING VIRAL PRODUCTION” (Synvivia, Inc., priority 2022, published 2023)

Experiments:
AAV2 [1] = assay: Physical titer (qPCR or ddPCR, VG/ml) of AAVs packaged in cells expressing a CP; type: cell-based, adeno-associated virus; conditions: FIG. 20A; GFP payload; cells expressing individual CP relative to no CP expression
Experimental: (§1) FIG. 20. Exemplary bar charts showing fold improvement of physical titer and/or biological titer for various CPs. […] The payload being packaged during AAV production is GFP only. The cyclic peptide generator is located on a separate DNA, is only expressed by the host cell, and is not able to be packaged. Physical titer is quantified by qPCR or ddPCR and expressed as viral genomes produced per mL (VG/ml) of AAV packaging cells and media. […] Biological titer is measured in vitro by transducing a standardized number of wild-type (WT) mammalian (HEK293) cells with diluted AAVs harvested after packaging with or without CP expression. The transductants are identified by GFP payload expression. The fold improvement is calculated by dividing the percentage of GFP expressing (transduced) cells after transduction with AAVs packaged in cells expressing a CP by the percentage of GFP expressing (transduced) cells after transduction with AAVs packaged in cells that are not expressing a CP.
Primers binding the eGFP reporter protein were used to measure the virus titer with quantitative polymerase chain reaction (qPCR). Before releasing the viral DNA from the particles, all extra-viral DNA was removed by digestion with DNase I. Then, the viral DNA was released by alkaline lysis. The qPCR was performed using the PowerUp™ SYBR™ Green Master Mix (Applied Biosystems), and primers against the zsGreen obtained from Integrated DNA Technologies. The extracted viral DNA and a serial dilution of a viral plasmid containing z as a standard were measured using the CFX96 Touch Real-Time PCR Detection System and the CFX Maestro Software (Bio-Rad, Hercules, CA).
(§2) 50-70% confluent HEK-293T cells (˜10^6 total cells) grown in DMEM supplemented with 5% FBS were quadruple transfected with pHelper Vector, pAAV-ZsGreenl Vector, AAVpro® Packaging Rep-Cap Plasmid (AAV2), and pTargeT Mammalian Expression Vector with cloned individual cyclic peptide generator of interest in a 1:1:1:1 molar ratio normalized to the plasmid size using JetOptimus Transfection Reagent in 100 mm TC treated petri dish. AAV preparation is conducted as described above. Biological viral titer measurement is performed as described above.
(§3) • 1. A 100-mm cell culture dish was reseeded with 4.0×10^6 Hek293T cells in high glucose DMEM culture medium supplemented with 10% FBS. • 2. One day after plating, the cells (70-80% confluence) were co-transfected with 3.2ug pRC2 which encodes Rep and Cap genes (SEQ ID NO: 1-7), 4.6ug pHelper which encodes Adenovirus helper genes (SEQ ID NO: 16-19, 22, 23), 2.2ug payload vector, and 1-100ng engineered cyclic peptide expression vector (if using). A jetOPTIMUS DNA transfection reagent i used during the transfection protocol (from Polyplus). • 3. 12-16 hours after transfection, media was replaced with low glucose DMEM culture medium supplemented with 1% FBS, 1×Glutamax, 10 mM HEPES, and 0.075% sodium bicarbonate. • 4. Cells and media were harvested 4 days after transfection and frozen in 1 mL aliquots. • 5. Frozen aliquots were thawed and lysed using AAVMax Lysis Reagent (Life Technologies, USA, A50520). 100 uL of AAVMax Lysis buffer was added to 900 uL of cell and media. Mixture was incubated for 2 hours with rotating. Debris was pelleted at 5,000xg for 15 minutes. AAV containing supernatant was collected. • 6. The physical and biological titers of the harvested AAV samples were determined by qPCR and biological viral titer measurement as described in Example 1.
The physical titer fold improvement was calculated by dividing the physical titer of AAVs packaged in cells expressing a CP by the physical titer of cells that are not expressing a CP.

AAV2 [2] = assay: Biological titer of AAVs packaged in cells expressing a CP (GFP-positive transduced HEK293 cells); type: cell-based, adeno-associated virus; conditions: FIG. 20B; HEK293 transduction; cells expressing individual CP relative to no CP expression
Experimental: as §1
HEK-293T were reseeded in a 24 well tissue culture treated plate at a density of 1-2*10^4 cells/well in 0.5 mL of DMEM with 10% FBS. Cells were cultured overnight. 10-fold serial dilutions of prepared AAV2 particle solutions using DMEM with 10% FBS were used to infect the HEK-293T cells. Dilutions ranged from 1:10 to 1:10000. On Day 3 after infection, cells were detached using Trypsin/EDTA and analyzed for eGFP expression by image-based cytometry.
as §2, §3
The fold improvement in biological titer was calculated by dividing the percentage of GFP expressing (transduced) cells after transduction with AAVs packaged in cells expressing a CP by the percentage of GFP expressing (transduced) cells after transduction with AAVs packaged in cells that are not expressing a CP.

Substance | fold improvement in physical titer of AAVs (AAV2 [1]) | fold improvement in biological titer of AAVs (AAV2 [2])
CAAAS: engineered cyclic peptide, SEQ ID NO: 48 (cyclic; Cyclic peptide that was found to enhance AAV viral titer) | fold improvements in physical titer | fold improvements in biological titer
CADTV: engineered cyclic peptide, SEQ ID NO: 49 (cyclic; Cyclic peptide that was found to enhance AAV viral titer) | fold improvements in physical titer | –
CANMPY: engineered cyclic peptide, SEQ ID NO: 50 (cyclic; Cyclic peptide that was found to enhance AAV viral titer; We observed log10 enrichment score of 2.959, mean of 79 experimental replicates. We observed excellent mean log10 enrichment scores for this cyclic peptide across multiple AAV serotypes: AAV1_3.0; AAV2_3.1; AAV5_2.8; AAV6_2.7. This CP possesses the following motifs: POL_HYD_POL-motif; HYD_ARO_POL-motif; POL_HYD_HYD-motif.) | – | fold improvements in biological titer
CARFR: engineered cyclic peptide, SEQ ID NO: 51 (cyclic; Cyclic peptide that was found to enhance AAV viral titer) | – | fold improvements in biological titer
CETDV: engineered cyclic peptide, SEQ ID NO: 52 (cyclic; Cyclic peptide that was found to enhance AAV viral titer) | – | fold improvements in biological titer
CKDYFS: engineered cyclic peptide expressed from a generator plasmid, SEQ ID NO: 34 (cyclic; Cyclic peptide that was found to increase AAV viral titer.) | fold improvements in physical titer | –
CPKNP: engineered cyclic peptide, SEQ ID NO: 53 (cyclic; Cyclic peptide that was found to enhance AAV viral titer) | fold improvements in physical titer | –
CQSRS: engineered cyclic peptide, SEQ ID NO: 54 (cyclic; Cyclic peptide that was found to enhance AAV viral titer) | fold improvements in physical titer | –
CQVTRM: engineered cyclic peptide, SEQ ID NO: 55 (cyclic; Cyclic peptide that was found to enhance AAV viral titer; We observed log10 enrichment score of 3.258, mean of 74 experimental replicates. We observed excellent mean log10 enrichment scores for this cyclic peptide across multiple AAV serotypes: AAV1_3.4; AAV2_3.3; AAV5_3.2; AAV6_3.1. Cyclo-CQVTRM possesses the following motifs: POL_HYD_POL-motif; POL_POL_HYD-motif; POS_HYD_POL-motif.) | fold improvements in physical titer | fold improvements in biological titer
CRRHYA: engineered cyclic peptide, SEQ ID NO: 230 | – | fold improvements in biological titer
CSDPSA: engineered cyclic peptide, SEQ ID NO: 56 (cyclic; Cyclic peptide that was found to enhance AAV viral titer; We observed log10 enrichment score of 3.653, mean of 76 experimental replicates. We observed excellent mean log10 enrichment scores for this cyclic peptide across multiple AAV serotypes: AAV1_3.5; AAV2_4.0; AAV5_3.0; AAV6_3.4. Cyclo-CSDPSA possesses the following motifs: POL_HYD_POL-motif; NEG_HYD_POL-motif; POL_NEG_HYD-motif; POL_POL_NEG-m) | fold improvements in physical titer | fold improvements in biological titer
CSESCP: engineered cyclic peptide, SEQ ID NO: 57 (cyclic; Cyclic peptide that was found to enhance AAV viral titer) | fold improvements in physical titer | fold improvements in biological titer
CSVPY: engineered cyclic peptide, SEQ ID NO: 58 (cyclic; Cyclic peptide that was found to enhance AAV viral titer) | – | fold improvements in biological titer
CTCKK: engineered cyclic peptide, SEQ ID NO: 59 (cyclic; Cyclic peptide that was found to enhance AAV viral titer) | fold improvements in physical titer | –
CYPLH: engineered cyclic peptide, SEQ ID NO: 60 (cyclic; Cyclic peptide that was found to enhance AAV viral titer) | fold improvements in physical titer | fold improvements in biological titer
CYSPF: engineered cyclic peptide, SEQ ID NO: 61 (cyclic; Cyclic peptide that was found to enhance AAV viral titer) | – | fold improvements in biological titer
CYVTTD: engineered cyclic peptide, SEQ ID NO: 62 (cyclic; Cyclic peptide that was found to enhance AAV viral titer; We observed log10 enrichment score of 3.986, mean of 70 experimental replicates. We observed excellent mean log10 enrichment scores for this cyclic peptide across multiple AAV serotypes: AAV1_4.2; AAV2_4.1; AAV5_3.6; AAV6_3.9. Cyclo-CYVTTD possesses the following motifs: ARO_HYD_POL-motif; POL_POL_NEG-motif; NEG_POL_ARO-motif.) | fold improvements in physical titer | fold improvements in biological titer
